Measurements published in patent US20260335348A1, “PHARMACEUTICAL FORMS OF A CD73 INHIBITOR” (ORIC Pharmaceuticals, Inc., priority 2022, published 2026).
Converted amounts (≈) assume the structure as drawn. Read-outs that look alike come from different tables or passages of the source.

How the values were obtained:
[1] = Solubility of gentisate Form 2 of Compound 1 in water, SGF, FaSSIF and FeSSIF after 4 hours at 37 °C (HPLC); type: physicochemical
Method: The solubility of a polymorphic form of a gentisate form of Compound 1 was measured in water, simulated gastric fluid (SGF), fasted-state simulated intestinal fluid (FaSSIF), and fed-state simulated intestinal fluid (FeSSIF) after 4 hours and at 37 °C as follows.
The SGF media was prepared by weighing 49.5 mg of NaCl and 25.4 mg of Triton X-100 into a 100-mL volumetric flask. A volume of purified water was added to the flask and the resulting mixture was sonicated until all solids were dissolved. About 1.632 mL of HCl solution (1 M) were then added and sufficient purified water to the target volume and to adjust the pH to 1.8. The solution was then diluted to volume with purified water, mixed well and the pH value was measured to be 1.83.
A FaSSIF buffer was prepared by weighing 340.8 mg of NaH2PO4, 43.0 mg of NaOH and 619.6 mg of NaCl into a 100-mL volumetric flask. A volume of purified water was added to the flask and the resulting mixture was sonicated until the solids had dissolved. A second volume of purified water was added to the flask to adjust the pH to 6.5. The solution was diluted with another volume of purified water, mixed, and the pH value was measured to be 6.54. The FaSSIF media was prepared by weighing 110.4 mg of SIF powder into a 50-mL volumetric flask to which a volume of FaSSIF dissolving buffer was added. The resulting mixture was sonicated until the SIF powder dissolved. Then mixture was then diluted to volume with FaSSIF dissolving buffer and mixed well. The FaSSIF solution was equilibrated for 2 hours at room temperature before it was used.
A FeSSIF dissolving buffer was prepared by weighing 0.82 mL of glacial acetic acid, 404.9 mg of NaOH and 1188.2 mg of NaCl into a 100-mL volumetric flask. A volume of purified water was added to the flask and the mixture was sonicated until the solids were dissolved. A second volume of purified water was added to the target volume to adjust the pH to 5.0. The solution was diluted with a volume of purified water, mixed well the pH value was measured to be 4.96. FeSSIF media was prepared by weighing 559.6 mg of SIF powder into a 50-mL volumetric flask. A volume of FeSSIF dissolving buffer was added to the flask and the resulting mixture was sonicated the SIF powder was dissolved. A second volume FeSSIF dissolving buffer was added and the resulting mixture was mixed well. The FeSSIF solution was equilibrated for 2 hours to room temperature before use.
An Agilent 1260 high performance liquid chromatography (HPLC) instrument equipped with a DAD detector, a Waters H-Class UPLC with PDA detector was used in the solubility measurements using the conditions set forth in Table 6.
About 10 mg of a gentisate Form 2 of Compound 1 (calculated by weight of the free base of Compound 1) was placed into a 3 mL glass vial and 1 mL of the respective media (water, SGF, FaSSIF and FeSSIF) was added into each glass vial. A cap was placed on each of the vials and they were rolled at 37 °C (25 rpm) for 4 hours. The suspension was then extracted into a centrifugation tube prior to centrifugation (10000 rpm, 37 °C, 5 min) and filtration (0.22 μm PTFE membrane). The resulting supernatant was analyzed by HPLC and the pH was determined. The solubility of the polymorphic form of a gentisate Form 2 of Compound 1 measured was as set forth above was as set forth in Table 7.

[2] = Stability of Form 2 of a gentisate form of Compound 1 under storage conditions (reverse-phase HPLC impurities, XRPD); type: physicochemical; details: for Total impurities present: reverse-phase HPLC
Method: To measure stability of the Form 2 of a gentisate form of Compound 1 under storage conditions, samples of Form 2 of a gentisate form of Compound 1 were placed in double low-density polyethylene bags with desiccant between the bags and each was placed into a high-density polyethylene drum. One drum was stored at a temperature of 5 °C and samples of the material were taken at 1 month and 3 months, and the samples were analyzed for the presence of impurities. The other drum was stored at a temperature of 25 °C and at 60% relative humidity (RH), samples of the materials were taken at 1 month and 3 months, and the samples were analyzed for the presence of impurities. The amount of the Form 2 of a gentisate form of Compound 1, and the amount ofany impurities, in each sample was measured by reverse-phase high performance liquid chromatography using the test conditions set and solvent gradients forth in Table 13 and Table 14. The samples were tested to determine the amount remaining of Form 2 at each time point, and the measurements were conducted by x-ray powder diffraction (XRPD) according to USP <941>.

[3] = storage 5 °C, initial (time = zero)
[4] = storage 25 °C and 60% RH, 1 month
[5] = storage 25 °C and 60% RH, 3 months
[6] = storage 25 °C and 60% RH, initial (time = zero)

pH (of supernatant) ([1]; fasted-state simulated intestinal fluid (FaSSIF)): 2.5 | solubility at 4 h ([1]; fasted-state simulated intestinal fluid (FaSSIF), pH 2.5, read-out: Solubility (calculated as the amount of free base of Compound 1)): > 10.2 mg/mL | pH (of supernatant) ([1]; fed-state simulated intestinal fluid (FeSSIF)): 4.4 | solubility at 4 h ([1]; fed-state simulated intestinal fluid (FeSSIF), pH 4.4, read-out: Solubility (calculated as the amount of free base of Compound 1)): > 9.42 mg/mL | pH (of supernatant) ([1]; simulated gastric fluid (SGF)): 1.7 | solubility at 4 h ([1]; simulated gastric fluid (SGF), pH 1.7, read-out: Solubility (calculated as the amount of free base of Compound 1)): > 9.71 mg/mL | pH (of supernatant) ([1]; water): 1.7 | solubility at 4 h ([1]; water, pH 1.7, read-out: Solubility (calculated as the amount of free base of Compound 1)): 26.2 mg/mL (≈ 43.2 mM) | XRPD ([2]; storage 5 °C, 1 month): Crystalline | Total impurities present ([2]; storage 5 °C, 1 month): 4.5 % area | XRPD ([2]; storage 5 °C, 3 months): Crystalline | Total impurities present ([2]; storage 5 °C, 3 months): 4.2 % area | XRPD [2, 3]: Crystalline | Total impurities present [2, 3]: 4.4 % area | XRPD [2, 4]: Crystalline | Total impurities present [2, 4]: 4.5 % area | XRPD [2, 5]: Crystalline | Total impurities present [2, 5]: 4.3 % area | XRPD [2, 6]: Crystalline | Total impurities present [2, 6]: 4.4 % area | Stability ([2]; stored at 5 °C): stable up to 3 months | Stability ([2]; stored at 25 °C and at 60% RH): stable up to 3 months
SMILES: O=P(O)(O)[C@@](CO)(COCc1nn[nH]n1)OC[C@H]1O[C@@H](n2ncc3c(NC4CCCC4)nc(Cl)nc32)[C@H](O)[C@@H]1O [Form 2 of a gentisate form of Compound 1]
